# Data taken from patent publication US12484600B2, “Expanded foam for delivery of functional ingredients” (Boehringer Ingelheim Vetmedica GmbH, priority 2020, dated 2025).
# Test system: Staphylococcus aureus NCTC 8325-4
# Assay: Growth in LB broth flask culture with or without calcium chloride supplementation (visual growth, terminal plate count)
# Format: cell-based
# Settings: for critical limit in combination with 0.5% calcium chloride: procedures as for Table 8
# Protocol: The test organism is Staphylococcus aureus NCTC 8325-4 as described in the methods and flask cultures are 100 ml of Luria-Bertani broth (LB broth) in 250 ml Erlenmeyer flasks. LB broth is used instead of brain Heart Infusion because it is more defined and limited in mineral content.
# A standard inoculum is grown as described in the methods section and adjusted to a viable cell count of […] by dilution in sterile saline, 0.1 ml of this is used to aseptically inoculate 100 ml volumes of test media—the inoculum being […] in the test flask.
# To determine the Minimum Inhibitory effect of hexametaphosphate a series of flasks with 100 ml of LB broth were each supplemented with concentrations of hexametaphosphate ranging from 0% W/W to 1% W/W, each flask was inoculated with a standard inoculum to achieve 1×10^3 viable bacterial in the flask, the flasks were incubated at 37° C. in a rotary incubator for 24 hours and evaluated visually for growth at that time.
# Following visual evaluation, 0.5% sterile calcium chloride was added to all flasks and incubation continued for a further 24 hours.
structure (smiles),measurement,setting,value
"[Ca+2].[Cl-].[Cl-] [Calcium, calcium chloride]",24 H CFU/ml,"0.5% Calcium, LB broth",>10^9 CFU/ml
same,effect on growth,0.5% calcium chloride supplement alone,no effect on growth
"O=P1([O-])OP(=O)([O-])OP(=O)([O-])OP(=O)([O-])OP(=O)([O-])OP(=O)([O-])O1.[Na+].[Na+].[Na+].[Na+].[Na+].[Na+] [SHMP, sodium hexametaphosphate]",24 H CFU/ml,"0.27% SHMP, LB broth",~2 × 10^2 CFU/ml
same,residual viability,"0.27% hexametaphosphate, 24 hours",2×10^2
same,concentrations that remained inhibited post addition of calcium chloride,0.5% calcium chloride,at least 0.5%
same,concentrations with full growth 24 hours post addition of calcium chloride,0.5% calcium chloride,≤ 0.27%
same,effect on microbial growth under conditions of excess calcium,"0.5% calcium chloride, 0.27% SHMP, 0.375% functional emulsion",no inhibitory effect on microbial growth
same,concentrations at which growth was apparently inhibited,"LB broth, 24 hours, no calcium supplementation",≥ 0.05%
O=c1ccn([C@@H]2O[C@H](COP(=O)(O)O)[C@@H](O)[C@H]2O)c(=O)[nH]1 [Uridine monophosphate],critical limit in combination with 0.5% calcium chloride,,inconclusive
O=P([O-])([O-])O.[Na+].[Na+] [di-sodium orthophosphate],critical limit in combination with 0.5% calcium chloride,,0.75%
O=P([O-])([O-])O[C@H]1[C@H](OP(=O)([O-])O)[C@H](OP(=O)([O-])[O-])[C@H](OP(=O)([O-])O)[C@@H](OP(=O)([O-])[O-])[C@@H]1OP(=O)([O-])O.[Na+].[Na+].[Na+].[Na+].[Na+].[Na+].[Na+].[Na+].[Na+] [sodium phytate],critical limit in combination with 0.5% calcium chloride,,0.2%
O=C([O-])CC(O)(CC(=O)[O-])C(=O)[O-].[Na+].[Na+].[Na+] [tri-sodium citrate],critical limit in combination with 0.5% calcium chloride,,0.5%
